What all share (assay type): cell-based, human
One data set concerns TIMELESS
Kind of data set: QPCR of gene target after miR-29a overexpression in HEYA8 cells. Conditions: HEYA8, forced miR-29a expression vs scrambled control and untreated. How it is done:
(§1) FIG. 4: QPCR analysis showing relative quantity of selected miR-29a anti-correlated gene targets after miR29a overexpression in HEYA8 ovarian cancer cells (SCR, scrambled control; WT, untreated; two-sided t-test P<0.05, mir-29a vs SCR and miR-29a vs WT, each comparison, except for SAE1).
(§2) Total RNA (60 ng) was reverse transcribed in a 40 μl reaction using the TaqMan® MicroRNA Reverse Transcription Kit (ABI). QPCR was performed on a StepOne Real-Time PCR System (ABI) using Power-SYBR Green PCR Master Mix (ABI) in a 20 μl reaction and human ribosomal RNA 18s as an endogenous control (which was itself not miR-29a-regulated, data not shown). The QPCR experiments were run four times (separate days), each with independent biological samples (n=4 per group); within each experiment run, relative expression values were normalized to standard deviations from the mean.

A further data set has as its system DNMT3B. The description is as above. Conditions: HEYA8, forced miR-29a expression vs scrambled control and untreated. How it is done: as §1, §2
A further data set deals with CDC6. Described as above. Conditions: HEYA8, forced miR-29a expression vs scrambled control and untreated. As to the method: as §1, §2
The subject of another data set is CBX1. Described as above. Conditions: HEYA8, forced miR-29a expression vs scrambled control and untreated. As to the method: as §1, §2
Another data set deals with DNMT3A. The data set is described as above. Conditions: HEYA8, forced miR-29a expression vs scrambled control and untreated. As to the method:
as §1, §2

In the next data set the test system is SAE1. Described as above. As to conditions: HEYA8, forced miR-29a expression vs scrambled control and untreated. As to the method: as §1, §2
A further data set deals with MYBL2. The description is as above. As to conditions: HEYA8, forced miR-29a expression vs scrambled control and untreated. As to the method:
as §1, §2

The next data set has as its system OVCAR-8 cells. The data set is described as follows: Proliferation/viability under cisplatin treatment after miR-29a transfection. Conditions: OVCAR-8, miR-29a 72 h, cisplatin 0-7.5 μg/mL for 48 h. As to the method: (§3) FIGS. 6A-6B: Effect of miR-29a (72 h) on proliferation, under a range of concentrations of cisplatin treatment (at 48 h) of HEYA8 (FIG. 6A) and OVCAR-8 cells (FIG. 6B). Error bars are standard error. Proliferation curves of the parental HEYA8 strain treated with a scrambled control sequence and with microRNA mimics for miR-29a are shown.
(§4) The time course MTS assay experiments were run three times (separate days), each with a different set of biological quadruplicates (n=12 per group); within each experiment run, the viability measures within each time point were centered on the mean of the WT group for the first run. For cisplatin treatment, cells were transfected as described, and media was replaced after 24 hrs with media containing cisplatin (Sigma) (0-7.5 μg/mL). Viability was assayed 72 hrs post-transfection. Experiments were run three times, each with a different biological replicate (n=3 per group). For each run, viability measures within each concentration point were centered on the mean of values for the first run.

A further data set concerns HEYA8 cells. Described as above. Conditions: HEYA8, miR-29a 72 h, cisplatin 0-7.5 μg/mL for 48 h, vs scrambled control at same cisplatin dosage. How it is done: as §3, §4
Data set [1] concerns HEYA8 cells (p53-wild type ovarian cancer). Kind of data set: MTS proliferation assay after transient transfection of miR-29a mimic. As to conditions: HEYA8, miR-29a mimic transiently transfected, vs parental strain and scrambled control, 48 h and 72 h. As to the method: (§5) For the in vitro evaluation of miR-29a on cell proliferation of ovarian cancer cells, microRNA mimics of miR-29a were transiently transfected into the p53-deficient ovarian cancer cell line OVCAR8 and the p53-wild type HEYA8 and the impact of this microRNA on cell proliferation was measured by increase in absorbance from the […].
as §4
In general terms: Tetrazolium assays rely on reduction of a dye to a coloured formazan, in cell work by metabolically active cells.

The test system of data set [2] is OVCAR-8 cells (p53-deficient ovarian cancer). Described as above. As to conditions: OVCAR8, miR-29a mimic transiently transfected, vs parental strain and scrambled control, 48 h and 72 h. How it is done:
as §5, §4

Entries after “also recorded” stand apart in the source; their conditions may differ.

With “miR-29a: microRNA mimic of miR-29a (5′-TAGCACCATCTGAAATCGGTTA-3′, SEQ ID NO: 13), transiently transfected into ovarian cancer cells (listed as DNA, chemistry not given here)”, the “relative quantity of TIMELESS transcript (QPCR)” value with TIMELESS is “repressed”. For the same substance, the “relative quantity of DNMT3B transcript (QPCR)” value in the data set on DNMT3B is “repressed”. In addition, in the data set on CDC6, the “relative quantity of CDC6 transcript (QPCR)” value is reported as “repressed”. The “relative quantity of CBX1 transcript (QPCR)” value with CBX1 is “repressed”. Also, the “relative quantity of DNMT3A transcript (QPCR)” value with DNMT3A is listed as “repressed”. Further, the “relative quantity of SAE1 transcript (QPCR)” value with SAE1 is listed as “no functional repression”. In addition, the “relative quantity of MYBL2 transcript (QPCR)” value in the data set with MYBL2 is given as “repressed”. In addition, the “effect on proliferation under cisplatin treatment” value in the data set with OVCAR-8 cells is listed as “had an additional effect on chemotherapeutic agent cisplatin in inhibiting the growth”; with HEYA8 cells, “suppress the proliferation of HEYA8 significantly more effectively than the scrambled control; also recorded: suppresses the proliferation of HEYA8 significantly more effectively than the scrambled control”. The “effect on cell proliferation” value is “very significantly suppress cell proliferation” in data set [1] and “moderately suppress cell proliferation” in [2].

The values above are taken from US20120251619A1, “MicroRNA-29a,b,c as a Tumor Suppressor and Sensitizing Agent for Chemotherapy” (priority 2011, published 2012).
